Source: the Kinase Knowledgebase extract (Sharma et al. 2016)

Tests used:
CDK2 [1] = target: CDK2 (UniProt P24941); experiment: Enzyme Assay
CDK2 [2] = target: CDK2 (UniProt P24941); experiment: Enzyme Assay; remark: listed apart in the source

SMILES	IC50 (CDK2 [1]) [µM]	IC50 (CDK2 [2]) [µM]
COC(=O)[C@@]1(O)C[C@H]2O[C@]1(C)n1c3ccccc3c3c4c(c5c6ccccc6n2c5c31)C(=O)N[C@H]4C(C)C	1.9	29
COC(=O)[C@@]1(O)C[C@H]2O[C@]1(C)n1c3ccccc3c3c4c(c5c6ccccc6n2c5c31)C(=O)N[C@H]4CCc1ccccc1	–	3.7
COC(=O)[C@@]1(O)C[C@H]2O[C@]1(C)n1c3ccccc3c3c4c(c5c6ccccc6n2c5c31)C(=O)N[C@H]4Cc1ccccc1	0.15	1
CC(C)(C)n1nc(-c2cccc3ccccc23)c2c(N)ncnc21	0.015	18

Continued by falling IC50 (CDK2 [2]), values first:

IC50 (CDK2 [1]) [µM]	IC50 (CDK2 [2]) [µM]	SMILES
0.07	22	COC(=O)[C@@]1(O)C[C@H]2O[C@]1(C)n1c3ccccc3c3c4c(c5c6ccccc6n2c5c31)C(=O)N[C@H]4CC(C)C
10	10	COC(=O)[C@@]1(O)C[C@H]2O[C@]1(C)n1c3ccccc3c3c4c(c5c6ccccc6n2c5c31)C(=O)N[C@@H]4Cc1ccccc1
> 3.7	5.8	CCC(C)[C@@H]1NC(=O)c2c1c1c3ccccc3n3c1c1c2c2ccccc2n1[C@H]1C[C@](O)(C(=O)OC)[C@]3(C)O1 (stereo partly drawn)
